Patent publication US9920017B2, “Heterocyclic compounds as pesticides” (BAYER CROPSCIENCE AKTIENGESELLSCHAFT, priority 2014, dated 2018)
Read-outs that look alike come from different tables or passages of the source.

Assay: Determination of log P values by HPLC (reversed-phase C18)
Assay type: physicochemical
Conditions: for chromatographic logP: reversed-phase C18 HPLC column
Method: 1) Description of Method for Determination of the Log P Values ([…]) The log P values given in the table were determined in accordance with EEC Directive 79/831 Annex V.A8 by HPLC (High Performance Liquid Chromatography) using a reversed-phase column (C 18). Temperature: 55° C. […] Gradient: from 10% eluent A/90% eluent B to 95% eluent A/5% eluent B in 4.25 min. Calibration was effected with unbranched alkan-2-ones (having 3 to 16 carbon atoms) with known log P values (log P values determined on the basis of the retention times by linear interpolation between two successive alkanones). The lambda max values were determined in the maxima of the chromatographic signals using the UV spectra from 200 nm to 400 nm.

[1] = N-[1-aryl-1H-1,2,4-triazol-3-yl]benzamides, formula (1-9)
[2] = compounds of formula (IIa-1), R3 hydrogen
[3] = HPLC, reversed-phase C18, 55° C., final compounds table
[4] = HPLC-MS, preparation examples, read-out: log P (neutral)
[5] = pH 3.4, HPLC-MS, preparation examples, read-out: log P

In the case of `O=C(Nc1ncn(-c2ccccc2OC(F)(F)F)n1)c1ccccc1` [1-9 R1=OCF3 R2m=—], the “logP (neutral)” value [1] is reported as 2.15.
For `O=C(Nc1ncn(-c2c(Br)cc(F)cc2Br)n1)c1ccccc1` [1-9 R1=Br R2m=6-Br-4-F], the “logP (neutral)” value [1] was 2.14.
In the case of `O=C(Nc1ncn(-c2c(F)ccc(F)c2F)n1)c1ccccc1` [1-9 R1=F R2m=3,6-F2], the “logP (neutral)” value [1] is reported as 1.73.
With `Nc1ncn(-c2cccc(Cl)c2Cl)n1` [IIa-1 R1=Cl R2m=3-Cl] the “logP (neutral)” value [2] was 1.41.
With `COc1cccc(C)c1-n1cnc(NC(=O)c2ccccc2C(F)(F)F)n1` [Compound I-1-49] the “log P neutral” value [3] was 2.15.
For `Nc1ncn(-c2c(Br)cccc2Br)n1` [IIa-1 R1=Br R2m=6-Br], the “logP (neutral)” value [2] was 1.2.
With `O=C(Nc1ncn(-c2ccccc2F)n1)c1ccccc1Cl` [Compound I-1-1] the “log P neutral” value [3] was 1.88.
For `O=C(Nc1ncn(-c2ccccc2I)n1)c1ccccc1I` [Compound I-1-77], the “log P neutral” value [3] was 2.15.
For `O=C(Nc1ncn(-c2ccccc2F)n1)c1ccccc1` [1-9 R1=F R2m=—], the “logP (neutral)” value [1] was 1.69.
For `O=C(Nc1ncn(-c2c(F)cccc2Cl)n1)c1ccccc1OC(F)(F)F` [Compound I-1-34], the “log P neutral” value [3] was 2.30.
For `COc1cccc(C)c1-n1cnc(N)n1` [IIa-1 R1=CH3 R2m=6-OCH3], the “logP (neutral)” value [2] was 0.98.
With `O=C(Nc1ncn(-c2ncc(F)cc2F)n1)c1ccccc1` [N-[1-(3,5-Difluoropyridin-2-yl)-1H-1,2,4-triazol-3-yl]benzamide] the chromatographic logP [4] was 1.36.
Work on `CO/C(=N\C#N)c1ccccc1` [Methyl N-cyanobenzenecarboximidoate] yielded a chromatographic logP [4] of 1.83.
With `O=C(Nc1ncn(-c2cccc(Cl)c2Cl)n1)c1ccccc1Cl` [Compound I-1-52] the “log P neutral” value [3] was 2.29.
With `Nc1ncn(-c2ccccc2Br)n1` [IIa-1 R1=Br R2m=—] the “logP (neutral)” value [2] was 1.03.
In the case of `Cc1cccc(Cl)c1-n1cnc(NC(=O)c2ccccc2)n1` [1-9 R1=Cl R2m=6-CH3], the “logP (neutral)” value [1] is reported as 1.92.
`COc1cc(F)ccc1-n1nnc(NC(=O)c2ccccc2C(F)(F)F)n1` [Compound I-2-2, N-[2-(4-Fluoro-2-methoxyphenyl)-2H-tetrazol-5-yl]-2-(trifluoromethyl)benzamide] showed a chromatographic logP [5] of 2.35 and a chromatographic logP (HPLC, reversed-phase C18, 55° C., final compounds table, read-out: log P neutral) of 2.35.
For `O=C(Nc1ncn(-c2c(F)c(F)c(F)c(F)c2F)n1)c1ccccc1` [1-9 R1=F R2m=3,4,5,6-F4], the “logP (neutral)” value [1] was 2.11.
In the case of `Nc1ncn(-c2ccccc2OC(F)(F)F)n1` [IIa-1 R1=OCF3 R2m=—], the “logP (neutral)” value [2] is reported as 1.44.
With `Nc1ncn(-c2c(F)ccc(F)c2F)n1` [IIa-1 R1=F R2m=3,6-F2-phenyl] the “logP (neutral)” value [2] was 0.84.
With `O=C(Nc1ncn(-c2c(Cl)cccc2Cl)n1)c1ccccc1` [1-9 R1=Cl R2m=6-Cl] the “logP (neutral)” value [1] was 1.8.
For `COc1cccc(C)c1-n1cnc(NC(=O)c2ccccc2Cl)n1` [Compound I-1-50], the “log P neutral” value [3] was 1.95.
For `Nc1ncn(-c2c(Br)cc(F)cc2Br)n1` [IIa-1 R1=Br R2m=6-Br-4-F], the “logP (neutral)” value [2] was 1.35.
For `Nc1ncn(-c2c(Cl)cccc2Cl)n1` [IIa-1 R1=Cl R2m=6% Cl:], the “logP (neutral)” value [2] was 0.94.
For `O=C(Nc1ncn(-c2c(F)cccc2Cl)n1)c1ccccc1Cl` [Compound I-1-36], the “log P neutral” value [3] was 1.83.
In the case of `CCc1ccccc1C(=O)Nc1ncn(-c2c(F)c(F)c(F)c(F)c2F)n1` [Compound I-1-68], the “log P neutral” value [3] is reported as 2.61.
In the case of `Nc1ncn(-c2cc(Cl)ccc2Cl)n1` [IIa-1 R1=Cl R2m=5% Cl:], the “logP (neutral)” value [2] is reported as 1.44.
For `Nc1ncn(-c2ccccc2I)n1` [IIa-1 R1=I R2m=—], the “logP (neutral)” value [2] was 1.13.
In the case of `Nc1ncn(-c2c(F)c(F)c(F)c(F)c2F)n1` [IIa-1 R1=F R2m=3,4,5,6-F4], the “logP (neutral)” value [2] is reported as 1.31.
With `Cc1cccc(C)c1-n1cnc(NC(=O)c2ccccc2C(F)(F)F)n1` [Compound I-1-48] the “log P neutral” value [3] was 2.26.
For `Nc1ncn(-c2ncc(F)cc2F)n1` [1-(3,5-Difluoropyridin-2-yl)-1H-1,2,4-triazol-3-amine], the chromatographic logP [5] was 0.3.
In the case of `Nc1ncn(-c2c(F)cccc2I)n1` [IIa-1 R1=F R2m=6-I], the “logP (neutral)” value [2] is reported as 1.07.
With `O=C(Nc1ncn(-c2ccccc2Br)n1)c1ccccc1Cl` [Compound I-1-71] the “log P neutral” value [3] was 1.96.
In the case of `O=C(Nc1ncn(-c2cc(Cl)ccc2Cl)n1)c1ccccc1Cl` [Compound I-1-55], the “log P neutral” value [3] is reported as 2.34.
With `Cc1cccc(F)c1-n1cnc(NC(=O)c2ccccc2I)n1` [Compound I-1-39] the “log P neutral” value [3] was 2.13.
In the case of `O=C(Nc1ncn(-c2ccc(Cl)cc2Cl)n1)c1ccccc1C(F)(F)F` [Compound I-1-53], the “log P neutral” value [3] is reported as 2.58.
With `O=C(Nc1ncn(-c2ccccc2Cl)n1)c1ccccc1` [1-9 R1=Cl R2m=—] the “logP (neutral)” value [1] was 1.75.
In the case of `O=C(Nc1ncn(-c2c(Br)cccc2Br)n1)c1ccccc1` [1-9 R1=Br R2m=6-Br], the “logP (neutral)” value [1] is reported as 2.00.
With `Nc1ncn(-c2c(F)cccc2Br)n1` [1-(2-Bromo-6-fluorophenyl)-1H-1,2,4-triazol-3-amine] the chromatographic logP [4] was 0.92.
In the case of `O=C(Nc1ncn(-c2c(F)cccc2F)n1)c1ccsc1I` [Compound I-1-94], the “log P neutral” value [3] is reported as 1.92.
For `Nc1ncn(-c2ccccc2F)n1` [IIa-1 R1=F R2m=—], the “logP (neutral)” value [2] was 0.86.
With `O=C(Nc1ncn(-c2ccccc2Br)n1)c1ccccc1` [1-9 R1=Br R2m=—] the “logP (neutral)” value [1] was 1.80.
With `CCc1ccccc1C(=O)Nc1ncn(-c2c(Br)cccc2Br)n1` [Compound I-1-81] the “log P neutral” value [3] was 2.45.
For `O=C(Nc1ncn(-c2c(F)cc(F)cc2F)n1)c1ccccc1` [1-9 R1=F R2m=4,6-F2], the “logP (neutral)” value [1] was 1.71.
In the case of `O=C(Nc1ncn(-c2ccccc2C(F)(F)F)n1)c1ccccc1` [1-9 R1=CF3 R2m=—], the “logP (neutral)” value [1] is reported as 1.91.
With `O=C(Nc1ncn(-c2cccc(Cl)c2Cl)n1)c1ccccc1C(F)(F)F` [Compound I-1-51] the “log P neutral” value [3] was 2.49.
For `O=C(Nc1ncn(-c2ccc(Cl)cc2Cl)n1)c1ccccc1` [1-9 R1=Cl R2m=4-Cl], the “logP (neutral)” value [1] was 2.18.
In the case of `Cc1cccc(Cl)c1-n1cnc(NC(=O)c2ccccc2Cl)n1` [Compound I-1-41], the “log P neutral” value [3] is reported as 2.04.
With `CCc1ccccc1C(=O)Nc1ncn(-c2ccccc2C(F)(F)F)n1` [Compound I-1-95] the “log P neutral” value [3] was 2.33.
With `COc1ccccc1C(=O)Nc1ncn(-c2c(F)cccc2F)n1` [Compound I-1-16] the “log P neutral” value [3] was 1.91.
Compound `CCO/C=N/c1noc(-c2ccccc2)n1` [Ethyl [5-phenyl-1,2,4-oxadiazol-3-yl]imidoformate] has a chromatographic logP [4] of 2.87.
`O=C(Nc1ncn(-c2c(F)cccc2C(F)(F)F)n1)c1ccccc1` [N-{1-[2-Fluoro-6-(trifluoromethyl)phenyl]-1H-1,2,4-triazol-3-yl}benzamide] showed a chromatographic logP [4] of 1.95.
`O=C(Nc1ncn(-c2c(F)cccc2Br)n1)c1ccccc1` [N-[1-(2-Bromo-6-fluorophenyl)-1H-1,2,4-triazol-3-yl]benzamide] showed a chromatographic logP [4] of 1.79.
`Nc1ncn(-c2c(F)cccc2C(F)(F)F)n1` [1-[2-Fluoro-6-(trifluoromethyl)phenyl]-1H-1,2,4-triazol-3-amine] showed a chromatographic logP [4] of 1.09.
In the case of `O=C(Nc1ncn(-c2ccccc2Cl)n1)c1ccccc1C(F)(F)F` [Compound I-1-3], the “log P neutral” value [3] is reported as 2.10.
With `Cc1cccc(F)c1-n1cnc(N)n1` [IIa-1 R1=F R2m=6-CH3] the “logP (neutral)” value [2] was 1.03.
In the case of `O=C(Nc1ncn(-c2cc(Cl)ccc2Cl)n1)c1ccccc1` [1-9 R1=Cl R2m=5-Cl], the “logP (neutral)” value [1] is reported as 2.17.
For `O=C(Nc1ncn(-c2c(F)cccc2F)n1)c1cccnc1Cl` [Compound I-1-23], the “log P neutral” value [3] was 1.24.
In the case of `O=C(Nc1ncn(-c2ccccc2I)n1)c1ccccc1` [1-9 R1=I R2m=—], the “logP (neutral)” value [1] is reported as 1.87.
With `Cc1cccc(C)c1-n1cnc(NC(=O)c2ccccc2Cl)n1` [Compound I-1-47] the “log P neutral” value [3] was 2.04.
In the case of `CCc1ccccc1C(=O)Nc1ncn(-c2ccccc2I)n1` [Compound I-1-78], the “log P neutral” value [3] is reported as 2.31.
With `O=C(Nc1ncn(-c2ccccc2F)n1)c1ccccc1C(F)(F)F` [Compound I-1-2] the “log P neutral” value [3] was 2.06.
In the case of `Nc1ncn(-c2c(F)cccc2Cl)n1` [IIa-1 R1=Cl R2m=6-F], the “logP (neutral)” value [2] is reported as 0.86.
For `Nc1ncn(-c2ccc(Cl)cc2Cl)n1` [IIa-1 R1=Cl R2m=4-Cl], the “logP (neutral)” value [2] was 1.48.
In the case of `O=C(Nc1ncn(-c2c(F)c(F)c(F)c(F)c2F)n1)c1ccccc1Cl` [Compound I-1-66], the “log P neutral” value [3] is reported as 2.28.
For `Nc1ncn(-c2c(F)cc(F)cc2F)n1` [IIa-1 R1=F R2m=4,6-F2], the “logP (neutral)” value [2] was 0.82.
In the case of `O=C(Nc1ncn(-c2c(F)cccc2F)n1)c1ccccc1` [N-[1-(2,6-Difluorophenyl)-1H-1,2,4-triazol-3-yl]benzamide], the chromatographic logP [4] is reported as 1.59.
For `O=C(Nc1ncn(-c2cc(Cl)ccc2Cl)n1)c1ccccc1C(F)(F)F` [Compound I-1-54], the “log P neutral” value [3] was 2.55.
With `Cc1cccc(F)c1-n1cnc(NC(=O)c2ccccc2)n1` [1-9 R1=F R2m=6-CH3] the “logP (neutral)” value [1] was 1.89.
In the case of `CCc1cccc(Cl)c1-n1cnc(NC(=O)c2ccccc2)n1` [1-9 R1=Cl R2m=6-C2H5], the “logP (neutral)” value [1] is reported as 2.2.
In the case of `O=C(Nc1ncn(-c2ccccc2I)n1)c1ccccc1Cl` [Compound I-1-76], the “log P neutral” value [3] is reported as 2.01.
In the case of `COc1cccc(C)c1-n1cnc(NC(=O)c2ccccc2)n1` [1-9 R1=CH3 R2m=6-OCH3], the “logP (neutral)” value [1] is reported as 1.76.
With `O=C(Nc1ncn(-c2c(Br)cc(F)cc2Br)n1)c1ccccc1Cl` [Compound I-1-88] the “log P neutral” value [3] was 2.26.
With `CCc1ccccc1C(=O)Nc1ncn(-c2ccccc2Br)n1` [Compound I-1-73] the “log P neutral” value [3] was 2.34.
For `O=C(Nc1ncn(-c2c(F)cccc2I)n1)c1ccccc1` [1-9 R1=F R2m=6-I], the “logP (neutral)” value [1] was 1.79.
For `Cc1cccc(F)c1-n1cnc(NC(=O)c2ccccc2C(F)(F)F)n1` [Compound I-1-37], the “log P neutral” value [3] was 2.19.
